Test results reported in US11285125B2, “Oxidative retinal diseases” (priority 2011, dated 2022).
Like-named read-outs stand apart in the source and are kept apart here.

How the values were obtained:
[1] = system: coq null mutants (Q-less yeast); conditions: for viability of coq null mutants after fatty acid treatment: 200 μM fatty acid, plate dilution assay; for viability of cells by quantitative colony counting: colony counting at 1, 2 and 4 h
Description: Yeast coq3, coq7 and coq9 null mutants were prepared in the W303 yeast genetic background (WT). […] Cells were washed twice with sterile water and resuspended in phosphate buffer (0.10 M sodium phosphate, pH 6.2, 0.2% dextrose) to an OD600 nm=0.2. Samples were removed and 1:5 serial dilutions starting at 0.20 OD/ml were plated on YPD plate medium, to provide a zero time untreated control (shown in top left panel). The designated fatty acids were added to 200 μM final concentration to 20 ml of yeast in phosphate buffer. At 2 h, 4 h, and 16 h samples were removed, 1:5 serial dilutions prepared, and spotted onto YPD plate medium. Pictures were taken after 2 days of growth at 30° C. This panel is representative of two independent assays, performed on different days.
The fatty acid sensitive assay was performed as described in FIG. 6-1, except that 100 μl aliquots were removed at 1, 2, and 4 h and, following dilution, spread onto YPD plates. Pictures were taken after 2 to 2.5 days, and the number of colonies counted. Yeast strains include Wild type (circles), atp2 (triangles), or coq3 (squares); Fatty acid treatments include oleic C18:1 (solid line), linolenic, C18:3, n-3 (dashed line) or 11,11,14,14-D4-linolenic, C18:3, n-3, (dotted line).
A plate dilution assay can be used to assess PUFA sensitivity. This assay can be performed by spotting serial five-fold dilutions of aliquots onto YPD plate media (FIG. 3). The sensitivity of the different strains can be observed by visual inspection of the density of cells in each spot.

[2] = system: coq null mutants (Q-less yeast); conditions: cited from earlier work; for sensitivity of Q-less yeast to fatty acid treatment: compared with wild-type parental strain
wild-type yeast (W303) = conditions: four hour treatment, strain W303-1B background; cited from earlier work
[3] = Kinetics of O2 consumption during non-enzymatic chain oxidation in chlorobenzene initiated by AMVN; assay type: physicochemical; conditions: for rate of oxidation, ROX: 0.71 M in chlorobenzene, 40 mM AMVN, 37° C.
Description: FIG. 7. Kinetics of O2 consumption accompanied the oxidation of 0.71 M LA (plots 1 and 2) and 0.71 M D2-LA (plot 3) in chlorobenzene initiated by 40 mM AMVN at 37° C. Plot 2-0.23 mM HPMC was added to 0.71 M LA.
The kinetics of oxygen consumption during the oxidation of LA and D2-LA was studied with a glass capillary microvolumeter (FIG. 7). The rate of oxidation, ROX, was measured as a slope of [O2] traces. The rate of initiation, RIN, was determined by the inhibitor method with HPMC (“6-hydroxy-2,2,5,7,8-pentamethylbenzochroman”) as a reference inhibitor. RIN was calculated from the induction period of inhibited oxidation, tIND: RIN=2·[HPMC]/tIND. […] When the process was inhibited by 0.23 mM chain-breaking antioxidant HPMC, the duration of the induction period, tIND, was about 48 min, with the RIN value of around 0.16×10^−6 M/s. […] The latter precludes a direct determination of RIN. […] An estimated kinetic isotope effect (“KIE”), from comparison of ROX for LA and D2-LA, was around 6.1×10^−6/0.18×10^−6≈35. A similar KIE was determined during the oxidation of LA and 11,11-d2-LA in Triton X-100 aqueous micelles (data not shown). For comparative purposes, the theoretical KIE is 6.9 at 25° C. See Carpenter, “Determination of Organic Reaction Mechanisms” (John Wiley & Sons, 1984), p. 89.

Wild-type yeast cells = assay: Copper-stress lipid peroxidation assay (C11-Bodipy 581/591 fluorescence); assay type: cell-based, S. cerevisiae; conditions: 200 μM fatty acid 2 hours, then 50 μM CuSO4 60 min
Description: Wild-type yeast cells were treated as described above except the yeast were treated with 200 μM of the designated fatty acid for 2 hours, washed with sterile water, and were either not treated (triangles) or treated with 50 μM CuSO4 (squares) at room temperature. After 60 min of copper treatment cells were treated with 8 μM C11-Bodipy 581/591 for 30 min at room temperature. Four 100 μl aliquots were plated in a 96-well plate and the fluorescence was measured.

[4] = Rate of oxidation of mixtures of LA and D2-LA in chlorobenzene; assay type: physicochemical
Description: FIG. 8. Dependence of the rate of oxidation of the mixture of LA and D2-LA in chlorobenzene solution on mixture composition. Conditions: [LA]+[11,11-d2-LA]=0.775 M; [AMVN]=0.0217 M; 37° C. RIN=(1.10±0.08)×10^−7 M/sec.
To simulate the likely in vivo conditions, the kinetics of the oxidation of the mixtures of D2-LA and LA were studied (FIG. 8). In the experiments, the concentration of LA plus 11,11-d2-LA was 0.775 M; the concentration of AMVN was 0.0217 M; and the reactions were carried out at 37° C. The results afforded an RIN of 1.10±0.08×10^−7 M/sec.

[5] = 70 kg person; cited from earlier work

Description for Q-less coq3 yeast: Wild-type, yeast Q-less coq3, or respiratory deficient con 1 null mutants were incubated in the presence of 200 μM of LA and D2-LA at different ratios of PUFAs. Serial dilutions (1:5) starting at 0.2 OD/ml were spotted on YPD solid plate medium. A zero-time untreated control is shown on the top left. Growth at 30° C.
Wild-type, yeast Q-less coq3, or respiratory deficient con 1 null mutants were incubated in the presence of 200 μM of ALA and D4-LA at different ratios of PUFAs. Serial dilutions (1:5) starting at 0.2 OD/ml were spotted on YPD solid plate medium. Growth at 30° C.
Wild-type, yeast Q-less coq3, or respiratory deficient cor1 null mutants were incubated in the presence of 200 μM of LA and D2-LA at different ratios of PUFAs, as indicated in FIG. 9. Serial dilutions (1:5) starting at 0.20D/ml were spotted on YPD solid plate medium. […] Growth was at 30° C.
The experimental protocol described for Example 14 was also reproduced in vivo using Q-less coq3 yeast strains (FIG. 10) and different ratios of ALA to D4-ALA. Wild-type, yeast Q-less coq3, or respiratory deficient cor1 null mutants were incubated in the presence of 200 μM of ALA and D4-Lnn (Linolenic acid) at different ratios of PUFAs, as indicated in FIG. 10. Serial dilutions (1:5) starting at 0.2 OD/ml were spotted on YPD solid plate medium. Growth was at 30° C.

For [2H]C([2H])(/C=C\CC)/C=C\C([2H])([2H])/C=C\CCCCCCCC(=O)O [D4-ALA, 11,11,14,14-Tetradeutero-cis,cis,cis-9,12,15-Octadecatrienoic acid], the “viability of coq null mutants after fatty acid treatment” value (from here on “viability of coq null mutants”) ([1]; listed as D4-linolenic acid) was “resistant to PUFA-mediated cell killing”, the “viability of cells by quantitative colony counting” value [1] was “similar” and the “minimal amount of deuterated Lnn to cancel the toxicity of ALA” value (Q-less coq3 yeast; 200 μM total ALA and D4-Lnn at different ratios) was 15-20%.
In the case of CC/C=C\C/C=C\C/C=C\CCCCCCCC(=O)O [linolenic acid, cis,cis,cis-9,12,15-Octadecatrienoic acid], the “viable Q-less (coq2, coq3, and coq5) yeast mutants” value ([2]; four hour treatment) is listed as “Less than 1%”, the “viability of coq null mutants” value [1] is listed as “dramatic loss of viability” and the “wild-type cells that remain viable” value (wild-type yeast (W303)) is listed as 70%.
With [2H]C([2H])(/C=C\C/C=C\CC)C/C=C\CCCCCCC(=O)O [11, 11-D2-linolenic acid, 11,11-Dideutero-cis,cis,cis-octadeca-8,12,15-trienoic acid] the “viability of coq null mutants” value [1] was “comparable protection”.
In the case of [2H]C([2H])(/C=C\CCCCC)/C=C\CCCCCCCC(=O)O [D2-LA, 11,11-Dideutero-cis,cis-9,12-Octadecadienoic acid], the “length of the kinetic chain, ν=ROX/RIN” value [3] is reported as “≈ 1.1”, the “rate of oxidation, ROX” value [3] is reported as 1.8e-07 M/s and the “effect of addition of HPMC on oxidation” value ([3]; data not shown) is reported as “did not result in the decrease in ROX and the appearance of any detectable induction period”. For the same compound, the “estimated kinetic isotope effect (KIE)” value ([3]; from comparison of ROX for LA and D2-LA) was “≈ 35”, the “levels of lipid peroxidation” value (Wild-type yeast cells) was “lower levels of lipid peroxidation similar to yeast not treated with PUFA” and the “minimal amount of D2-LA to cancel the toxicity of LA” value (Q-less coq3 yeast; 200 μM total LA and D2-LA at different ratios) was 10-15%. The “effect in mixture with non-deuterated methyl linoleate” value ([4]; data not shown) was “qualititatively similar effect” and the “effect of D2-LA on autoxidation of non-deuterated LA” value ([4]; mixtures with LA) was “‘protects’ the non-deuterated LA against autoxidation”.
For CCCCCCCC/C=C\CCCCCCCC(=O)O [oleic acid, reference compound], the “sensitivity of Q-less yeast to fatty acid treatment” value [2] is given as “behave the same as the wild-type parental strain” and the “viability of cells by quantitative colony counting” value [1] is given as “similar”.
For [2H]O[2H] [heavy water], the “amount that might be drunk without serious consequences” value [5] is listed as 4.8 L.
With [2H]C([2H])(/C=C\CC)/C=C\CC/C=C\CCCCCCC(=O)O [14, 14-D2-linolenic acid, 14,14-Dideutero-cis,cis,cis-octadeca-8,12,15-trienoic acid] the “viability of coq null mutants” value [1] was “comparable protection”.
In the case of CCCCC/C=C\C/C=C\C/C=C\C/C=C\CCCC(=O)O [arachidonic acid], the “sensitivity of Q-less yeast to fatty acid treatment” value [2] is given as “hypersensitive”.
In the case of CCCCC/C=C\C/C=C\CCCCCCCC(=O)O [LA, cis,cis-9,12-Octadecadienoic acid, reference compound], the “length of the kinetic chain, ν=ROX/RIN” value [3] is reported as 38±3, the “rate of oxidation, ROX” value [3] is reported as 6.1e-06 M/s and the “rate of initiation, RIN” value ([3]; calculated from induction period, RIN=2·[HPMC]/tIND) is reported as “around 0.16×10^−6 M/s”. For the same compound, the calculated oxidizability ([3]; n=5) was 0.0215±0.008 M^−0.5 s^−0.5.
With [2H]C(/C=C\CCCCC)/C=C\CCCCCCCC(=O)O (stereo not shown) [11,11-D,H-LA, [11-^2H]-linoleic acid] the “loss in cell viability” value (Q-less coq3 yeast; after 3 hours of treatment, data not shown) was “no detectable loss in cell viability”.
